Source: patent US12606541B2, “PPARg modulators and methods of use” (Eisai R&D Management Co., Ltd., priority 2020, dated 2026)

Key:
His6-TEV-PPARγ-(234-505) = biological target: T1, His6-TEV-PPARγ-(234-505) (Homo sapiens, UniProt P37231); experiment: TR-FRET Assay to Measure Co-R Peptide Recruitment to PPARγ; assay type: biochemical; conditions: Co-R peptide (SMRT-ID2) recruitment; top final concentration 20 μM; read-out: TR-FRET i-Ag; AC50
T1 construct: The His6-TEV-PPARγ-(234-505) protein for assay was expressed and purified; TEV cleavage site (N); made in house
T1 sequence (P37231 234-505): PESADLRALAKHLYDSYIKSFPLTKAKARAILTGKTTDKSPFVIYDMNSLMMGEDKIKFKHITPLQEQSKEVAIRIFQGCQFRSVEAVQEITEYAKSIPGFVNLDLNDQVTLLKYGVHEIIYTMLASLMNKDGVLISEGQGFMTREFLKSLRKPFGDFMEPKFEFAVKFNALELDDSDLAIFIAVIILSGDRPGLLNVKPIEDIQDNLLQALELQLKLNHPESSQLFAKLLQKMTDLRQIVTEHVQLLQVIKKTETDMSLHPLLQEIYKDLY
Summary of the method: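 His-tagged PPARγ (or controls) was preincubated with compound for 20 minutes at room temperature, then 5 nM anti-His terbium antibody and 200 nM FITC-labeled SMRT-ID2 corepressor peptide (final) were added for a further hour. TR-FRET signal was normalized to percent response using 500 nM T0070907 and DMSO controls.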

UM-UC-9 engineered cells = experiment: Cell proliferation / short-term viability assay, CellTiter-Glo 144 h; assay type: cell-based, human; conditions: Homo sapiens, UM-UC-9, 144 h, read-out: CTGlo 144 h UMUC9.5, G150
Summary of the method: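 UM-UC-9 engineered assay-ready cells seeded at 500 cells/well in high-glucose DMEM/10% FBS, treated from dose-response plates, grown at 37° C, 5% CO2. CellTiter-Glo 2.0 luminescence read on day 7, with a day-0 pretreatment plate as T0 reference and DMSO wells as negative control.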

SMILES | AC50 (His6-TEV-PPARγ-(234-505)) [nM] | IC50 (UM-UC-9 engineered cells) [nM]
COc1cc(-c2cc(C(=O)N3CCC(C(=O)NCc4cc(C)n(C)n4)CC3)n[nH]2)c(Cl)cn1 [Example 141, 1-(5-(5-chloro-2-methoxypyridin-4-yl)-1H-pyrazole-3-carbonyl)-N-((1,5-dimethyl-1H-pyrazol-3-yl)methyl)piperidine-4-carboxamide] | 679 | 2600
COc1cc(-c2cc(C(=O)N3CCC(C(=O)NC(C)COc4ccc(Cl)cc4)CC3)n[nH]2)c(Cl)cn1 (stereo not shown) [Example 142, 1-(5-(5-chloro-2-methoxypyridin-4-yl)-1H-pyrazole-3-carbonyl)-N-(1-(4-chlorophenoxy)propan-2-yl)piperidine-4-carboxamide] | 904 | 3140
COc1cc(-c2cc(C(=O)N3CCC(C(=O)NC4CCCC(F)(F)C4)CC3)n[nH]2)c(Cl)cn1 (stereo not shown) [Example 143, 1-(5-(5-chloro-2-methoxypyridin-4-yl)-1H-pyrazole-3-carbonyl)-N-(3,3-difluorocyclohexyl)piperidine-4-carboxamide] | 910 | 3310
COc1cc(-c2cc(C(=O)N3CCC(C(=O)Nc4cccc(C(F)F)c4)CC3)n[nH]2)c(Cl)cn1 [Example 147, 1-(5-(5-chloro-2-methoxypyridin-4-yl)-1H-pyrazole-3-carbonyl)-N-(3-(difluoromethyl)phenyl)piperidine-4-carboxamide] | 268 | 955
COc1cc(-c2cc(C(=O)N3CCC(C(=O)NCC4CC(F)(F)C4)CC3)n[nH]2)c(Cl)cn1 [Example 148, 1-(5-(5-chloro-2-methoxypyridin-4-yl)-1H-pyrazole-3-carbonyl)-N-((3,3-difluorocyclobutyl)methyl)piperidine-4-carboxamide] | 712 | 3170
COc1cc(-c2cc(C(=O)N3CCC(C(=O)NCC(F)(F)c4ccccc4)CC3)n[nH]2)c(Cl)cn1 [Example 149, 1-(5-(5-chloro-2-methoxypyridin-4-yl)-1H-pyrazole-3-carbonyl)-N-(2,2-difluoro-2-phenylethyl)piperidine-4-carboxamide] | 49.3 | 418
COc1cc(-c2cc(C(=O)N3CCC(C(=O)N[C@H](C)c4cccc(F)c4)CC3)n[nH]2)c(Cl)cn1 [Example 153, (R)-1-(5-(5-chloro-2-methoxypyridin-4-yl)-1H-pyrazole-3-carbonyl)-N-(1-(3-fluorophenyl)ethyl)piperidine-4-carboxamide] | 621 | 2090
COc1cc(-c2cc(C(=O)N3CCC(C(=O)NCc4cccc(F)c4F)CC3)n[nH]2)c(Cl)cn1 [Example 155, 1-(5-(5-chloro-2-methoxypyridin-4-yl)-1H-pyrazole-3-carbonyl)-N-(2,3-difluorobenzyl)piperidine-4-carboxamide] | 103 | 122
COc1cc(-c2cc(C(=O)N3CCC(C(=O)NCc4cccc(Cl)c4F)CC3)n[nH]2)c(Cl)cn1 [Example 156, N-(3-chloro-2-fluorobenzyl)-1-(5-(5-chloro-2-methoxypyridin-4-yl)-1H-pyrazole-3-carbonyl)piperidine-4-carboxamide] | 32.1 | 106
COc1cc(-c2cc(C(=O)N3CCC(C(=O)NCC4CCC=CO4)CC3)n[nH]2)c(Cl)cn1 (stereo not shown) [Example 158, 1-(5-(5-chloro-2-methoxypyridin-4-yl)-1H-pyrazole-3-carbonyl)-N-((3,4-dihydro-2H-pyran-2-yl)methyl)piperidine-4-carboxamide] | 296 | 544
COc1cc(-c2cc(C(=O)N3[C@@H]4CC[C@H]3C[C@H](C(=O)NCc3cccc(Cl)c3)C4)n[nH]2)c(F)cn1 [Example 160-A, (1R,3s,5S)—N-(3-chlorobenzyl)-8-(5-(5-fluoro-2-methoxypyridin-4-yl)-1H-pyrazole-3-carbonyl)-8-azabicyclo[3.2.1]octane-3-carboxamide] | 11.5 | 38.2
COc1cc(-c2cc(C(=O)N3[C@@H]4CC[C@H]3C[C@@H](C(=O)NCc3cccc(Cl)c3)C4)n[nH]2)c(F)cn1 [Example 160-B, (1R,3r,5S)—N-(3-chlorobenzyl)-8-(5-(5-fluoro-2-methoxypyridin-4-yl)-1H-pyrazole-3-carbonyl)-8-azabicyclo[3.2.1]octane-3-carboxamide] | 14200 | > 10000
COc1cc(-c2cc(C(=O)N3CCC(C(=O)N(C)Cc4cccc(Cl)c4)CC3)n[nH]2)c(F)cn1 [Example 161, N-(3-chlorobenzyl)-1-(5-(5-fluoro-2-methoxypyridin-4-yl)-1H-pyrazole-3-carbonyl)-N-methylpiperidine-4-carboxamide] | 941 | 1950
COc1cc(-c2cc(C(=O)N3CCC(C(=O)NC4(C(F)(F)F)CCCC4)CC3)n[nH]2)c(Cl)cn1 [Example 162, 1-(5-(5-chloro-2-methoxypyridin-4-yl)-1H-pyrazole-3-carbonyl)-N-(1-(trifluoromethyl)cyclopentyl)piperidine-4-carboxamide] | 588 | 908
COc1cc(-c2cc(C(=O)N3CCC(C(=O)NCc4ccc(OC(F)(F)F)cc4)CC3)n[nH]2)c(Cl)cn1 [Example 164, 1-(5-(5-chloro-2-methoxypyridin-4-yl)-1H-pyrazole-3-carbonyl)-N-(4-(trifluoromethoxy)benzyl)piperidine-4-carboxamide] | 608 | 1010
COc1cc(-c2nc(C(=O)N3CCC(C(=O)NCc4cccc(Cl)c4)CC3)n[nH]2)c(F)cn1 [Example 166, N-[(3-chlorophenyl)methyl]-1-[5-(5-fluoro-2-methoxypyridin-4-yl)-1H-1,2,4-triazole-3-carbonyl]piperidine-4-carboxamide] | 300 | > 10000
COc1cc(-c2cc(C(=O)N3[C@@H]4CC[C@H]3C[C@H](C(=O)N[C@H]3CC[C@](O)(C(F)(F)F)CC3)C4)n[nH]2)c(F)cn1 [Example 170-B, (1R,3s,5S)-8-(5-(5-fluoro-2-methoxypyridin-4-yl)-1H-pyrazole-3-carbonyl)-N-((1s,4S)-4-hydroxy-4-(trifluoromethyl)cyclohexyl)-8-azabicyclo[3.2.1]octane-3-carboxamide] | 1110 | 3560

More lines, main results first:

AC50 (His6-TEV-PPARγ-(234-505)) [nM] | SMILES | IC50 (UM-UC-9 engineered cells) [nM]
85.4 | COc1cc(-c2cc(C(=O)N3CCC(C(=O)NCc4ncccc4Cl)CC3)n[nH]2)c(Cl)cn1 [Example 140, 1-(5-(5-chloro-2-methoxypyridin-4-yl)-1H-pyrazole-3-carbonyl)-N-((3-chloropyridin-2-yl)methyl)piperidine-4-carboxamide] | 634
262 | COc1cc(-c2cc(C(=O)N3CCC(C(=O)NCc4ncccc4F)CC3)n[nH]2)c(Cl)cn1 [Example 146, 1-(5-(5-chloro-2-methoxypyridin-4-yl)-1H-pyrazole-3-carbonyl)-N-((3-fluoropyridin-2-yl)methyl)piperidine-4-carboxamide] | 1410
48.1 | COc1cc(-c2cc(C(=O)N3CCC(C(=O)NCc4ccc(OC(F)F)cc4)CC3)n[nH]2)c(Cl)cn1 [Example 151, 1-(5-(5-chloro-2-methoxypyridin-4-yl)-1H-pyrazole-3-carbonyl)-N-(4-(difluoromethoxy)benzyl)piperidine-4-carboxamide] | 539
853 | COc1cc(-c2cc(C(=O)N3CCC(C(=O)NCc4ccc5ncoc5c4)CC3)n[nH]2)c(Cl)cn1 [Example 152] | 825
77.4 | COc1cc(-c2cc(C(=O)N3CCC(C(=O)NCc4cc(Cl)ccc4F)CC3)n[nH]2)c(Cl)cn1 [Example 154, N-(5-chloro-2-fluorobenzyl)-1-(5-(5-chloro-2-methoxypyridin-4-yl)-1H-pyrazole-3-carbonyl)piperidine-4-carboxamide] | 166
130 | COc1cc(-c2cc(C(=O)N3CCC(C(=O)NCc4cccc(F)c4)CC3)n[nH]2)c(Cl)cn1 [Example 157, 1-(5-(5-chloro-2-methoxypyridin-4-yl)-1H-pyrazole-3-carbonyl)-N-(3-fluorobenzyl)piperidine-4-carboxamide] | 212
27.1 | COc1cc(-c2cc(C(=O)N3CCC(C(=O)NCc4cccc(Cl)c4)CC3)n[nH]2)c(F)cn1 [Example 159, N-(3-chlorobenzyl)-1-(5-(5-fluoro-2-methoxypyridin-4-yl)-1H-pyrazole-3-carbonyl)piperidine-4-carboxamide] | 62.4
112 | COc1cc(-c2cc(C(=O)N3CCC(C(=O)NCc4ccc5c(c4)CC(=O)N5)CC3)n[nH]2)c(Cl)cn1 [Example 167, 1-(5-(5-chloro-2-methoxypyridin-4-yl)-1H-pyrazole-3-carbonyl)-N-((2-oxoindolin-5-yl)methyl)piperidine-4-carboxamide] | 4040
45.7 | COc1cc(-c2cc(C(=O)N3CCC(C(=O)NCc4cnc5[nH]ccc5c4)CC3)n[nH]2)c(Cl)cn1 [Example 168, N-((1H-pyrrolo[2,3-b]pyridin-5-yl)methyl)-1-(5-(5-chloro-2-methoxypyridin-4-yl)-1H-pyrazole-3-carbonyl)piperidine-4-carboxamide] | 487
